In brackets after ≈: the same amount, converted by molar mass. One block for each compound: values may come before it.
How the values were obtained:
Experiment in all cases: ≥ marks a high value that may be exact or a test limit, other limits are often not marked, values filed in µg/mL are converted to µM
Pseudomonas aeruginosa = tested on: Pseudomonas aeruginosa
[1] = tested on: Candida albicans F7-39/IDE99
Staphylococcus aureus = tested on: Staphylococcus aureus
Bacillus subtilis 168 = tested on: Bacillus subtilis 168
[2] = tested on: Micrococcus luteus CCM 144
Escherichia coli B = tested on: Escherichia coli B
Escherichia coli BW25113 = tested on: Escherichia coli BW25113
[3] = tested on: Staphylococcus aureus ATCC BAA-1556
[4] = tested on: Pseudomonas aeruginosa ATCC 27853
[5] = tested on: Candida albicans NCYC 1467
[6] = tested on: Enterococcus faecalis NCTC 12697
[7] = tested on: Staphylococcus aureus NCTC 12493
[8] = tested on: Staphylococcus aureus NCTC 10788
[9] = tested on: Escherichia coli NCTC 10418
[10] = tested on: Micrococcus luteus ATCC 10240
[11] = tested on: Salmonella enterica subsp. enterica serovar Typhimurium ATCC 14028
[12] = tested on: Bacillus subtilis ATCC 6633
[13] = tested on: Klebsiella pneumoniae ATCC 10031
[14] = tested on: Escherichia coli ATCC 25922
[15] = tested on: Staphylococcus aureus ATCC 6538P
[16] = tested on: Shigella dysenteriae ATCC 9752
[17] = tested on: Candida albicans ATCC 10231
Botrytis cinerea = tested on: Botrytis cinerea
[18] = tested on: Escherichia coli ATCC 11775
[19] = tested on: Staphylococcus aureus ATCC 12600
[20] = tested on: Escherichia coli K12 MG1655

Compound: CC[C@H](C)[C@H](NC(=O)[C@H](CC(C)C)NC(=O)[C@H](CCCCN)NC(=O)[C@@H](NC(=O)[C@@H](NC(=O)[C@H](Cc1cnc[nH]1)NC(=O)[C@@H]1CCCN1C(=O)[C@H](CC(C)C)NC(=O)[C@@H](NC(=O)[C@H](CCCCN)NC(=O)[C@H](C)NC(=O)[C@H](Cc1c[nH]c2ccccc12)NC(=O)[C@H](CC(C)C)NC(=O)[C@H](CO)NC(=O)[C@H](C)NC(=O)[C@H](CCSC)NC(=O)CN)C(C)C)C(C)C)C(C)C)C(=O)N[C@@H](CCCCN)C(=O)O [GMASLWAKVLPHVVKLIK]
MIC (Pseudomonas aeruginosa): 53.3 µM (≈ 106 µg/mL) | MIC [1]: 8.7 µM (≈ 17.3 µg/mL) | MIC (Staphylococcus aureus): 6 µM (≈ 11.9 µg/mL) | MIC (Bacillus subtilis 168): 4.7 µM (≈ 9.36 µg/mL) | MIC [2]: 1.7 µM (≈ 3.38 µg/mL) | MIC (Escherichia coli B): 2.3 µM (≈ 4.58 µg/mL)

Compound: CC[C@H](C)[C@H](NC(=O)[C@H](CCC(=O)O)NC(=O)[C@H](CC(N)=O)NC(=O)[C@H](CC(C)C)NC(=O)[C@H](C)NC(=O)[C@H](C)NC(=O)[C@H](CCCCN)NC(=O)CNC(=O)[C@H](C)NC(=O)[C@H](CC(N)=O)NC(=O)[C@H](CCCCN)NC(=O)[C@H](CC(C)C)NC(=O)[C@@H](NC(=O)[C@H](CCC(=O)O)NC(=O)[C@H](CCCCN)NC(=O)[C@H](Cc1c[nH]c2ccccc12)NC(=O)[C@H](CC(C)C)NC(=O)[C@H](C)N)C(C)C)C(=O)N[C@@H](CC(N)=O)C(=O)N[C@@H](CC(N)=O)C(=O)N[C@@H](CC(C)C)C(=O)N[C@H](C(=O)N[C@@H](CCC(N)=O)C(N)=O)C(C)C [ALWKEVLKNAGKAALNEINNLVQ]
MIC [4]: 64 µM (≈ 162 µg/mL) | MIC [5]: 16 µM (≈ 40.6 µg/mL) | MIC [6]: ≥ 32 µM | MIC [7]: ≥ 512 µM | MIC [8]: ≥ 32 µM | MIC [9]: 16 µM (≈ 40.6 µg/mL)

Compound: CC(C)C[C@H](NC(=O)[C@H](Cc1c[nH]c2ccccc12)NC(=O)[C@H](CCCCN)NC(=O)[C@H](CCCCN)NC(=O)[C@@H](N)CC(C)C)C(=O)N[C@@H](CCCCN)C(=O)N[C@@H](CCCCN)C(N)=O [LKKWLKK]
MIC [4]: > 212 µM | MIC [10]: ≥ 106 µM | MIC [11]: > 212 µM | MIC [12]: ≥ 212 µM | MIC [13]: ≥ 212 µM | MIC [14]: > 212 µM | MIC [15]: ≥ 212 µM | MIC [16]: ≥ 212 µM

Compound: CC[C@H](C)[C@H](NC(=O)CNC(=O)[C@H](CC(C)C)NC(=O)[C@@H](NC(=O)[C@@H]1CCCN1C(=O)[C@@H](N)CCC(=O)O)[C@@H](C)CC)C(=O)N[C@H](C(=O)N[C@H](C(=O)N[C@@H](CO)C(=O)N[C@@H](CC(C)C)C(=O)N[C@@H](CC(C)C)C(=O)N[C@@H](CCCCN)C(=O)N[C@@H](CO)C(=O)N[C@@H](CC(C)C)C(N)=O)[C@@H](C)O)[C@@H](C)CC [EPILGIITSLLKSL]
MIC [17]: 66.8 µM (≈ 99.9 µg/mL) | MIC (Botrytis cinerea): 0.334 µM (≈ 0.5 µg/mL) | MIC [18]: ≥ 66.8 µM | MIC [19]: ≥ 66.8 µM

Compound: CC(C)C[C@H](NC(=O)[C@H](Cc1c[nH]c2ccccc12)NC(=O)[C@H](CCCCN)NC(=O)[C@H](CC(C)C)NC(=O)[C@H](CC(C)C)NC(=O)[C@H](CCCCN)NC(=O)[C@@H](N)CCCCN)C(N)=O [KKLLKWL]
MIC [3]: ≥ 100 µM

Compound: CC[C@H](C)[C@H](NC(=O)[C@H](Cc1ccccc1)NC(=O)[C@H](CO)NC(=O)[C@H](CC(C)C)NC(=O)[C@@H](NC(=O)[C@H](CCCN=C(N)N)NC(=O)CN)[C@@H](C)CC)C(=O)N[C@@H](CCCCN)C(=O)NCC(=O)N[C@@H](CC(C)C)C(=O)N[C@@H](C)C(=O)N[C@@H](CCC(=O)O)C(=O)N[C@@H](Cc1cnc[nH]1)C(=O)N[C@@H](CC(C)C)C(N)=O [GRILSFIKGLAEHL]
MIC [17]: 6.44 µM (≈ 9.99 µg/mL) | MIC (Botrytis cinerea): 9.65 µM (≈ 15 µg/mL) | MIC [18]: ≥ 64.4 µM | MIC [19]: ≥ 64.4 µM

Compound: CC[C@H](C)[C@H](NC(=O)[C@H](CC(C)C)NC(=O)[C@H](Cc1ccc(O)cc1)NC(=O)[C@H](CC(C)C)NC(=O)[C@H](CC(C)C)NC(=O)[C@H](CC(C)C)NC(=O)[C@H](CCCN=C(N)N)NC(=O)[C@H](CC(C)C)NC(=O)[C@H](CCCN=C(N)N)NC(=O)[C@H](C)NC(=O)[C@H](C)NC(=O)[C@H](C)N)C(=O)N[C@H](C(=O)N[C@@H](CCCN=C(N)N)C(=O)N[C@@H](CCCN=C(N)N)C(=O)O)[C@@H](C)O [AAARLRLLLYLITRR]
MIC [20]: ≥ 71.1 µM

Other lines, results leading:

MIC (Escherichia coli BW25113): 4 µM (≈ 9.52 µg/mL)
Compound: CC[C@H](C)[C@H](NC(=O)[C@@H]1CCCN1C(=O)[C@H](CCCN=C(N)N)NC(=O)[C@H](CCCN=C(N)N)NC(=O)[C@H](Cc1c[nH]c2ccccc12)NC(=O)[C@@H](N)CCCN=C(N)N)C(=O)N[C@@H](CCCN=C(N)N)C(=O)N[C@@H](CCCN=C(N)N)C(=O)N[C@@H](CCCN=C(N)N)C(=O)N1CCC[C@H]1C(=O)N[C@H](C(=O)N[C@@H](CCCN=C(N)N)C(=O)N1CCC[C@H]1C(=O)N1CCC[C@H]1C(=O)N[C@@H](Cc1ccccc1)C(=O)N[C@@H](Cc1ccc(O)cc1)C(=O)N[C@@H](CCCN=C(N)N)C(=O)O)[C@@H](C)CC [RWRRPIRRRPIRPPFYR]

MIC (Escherichia coli BW25113): 4 µM (≈ 9.44 µg/mL)
Compound: CC[C@H](C)[C@H](NC(=O)[C@@H]1CCCN1C(=O)[C@H](CCCN=C(N)N)NC(=O)[C@H](CCCN=C(N)N)NC(=O)[C@H](Cc1c[nH]c2ccccc12)NC(=O)[C@@H](N)CCCN=C(N)N)C(=O)N[C@@H](CCCN=C(N)N)C(=O)N[C@@H](CCCN=C(N)N)C(=O)N[C@@H](CCCN=C(N)N)C(=O)N1CCC[C@H]1C(=O)N[C@H](C(=O)N[C@@H](CCCN=C(N)N)C(=O)N1CCC[C@H]1C(=O)N1CCC[C@H]1C(=O)N[C@@H](Cc1c[nH]c2ccccc12)C(=O)N[C@@H](Cc1ccc(O)cc1)C(=O)N1CCC[C@H]1C(=O)O)[C@@H](C)CC [RWRRPIRRRPIRPPWYP]

MIC [3]: 3.12 µM (≈ 4.74 µg/mL)
Compound: CC(C)C[C@H](NC(=O)[C@H](Cc1c[nH]c2ccccc12)NC(=O)[C@H](Cc1c[nH]c2ccccc12)NC(=O)[C@H](CC(C)C)NC(=O)[C@H](Cc1c[nH]c2ccccc12)NC(=O)[C@@H](N)Cc1c[nH]c2ccccc12)C(=O)N[C@@H](Cc1c[nH]c2ccccc12)C(=O)N[C@@H](Cc1c[nH]c2ccccc12)C(=O)N[C@@H](CCCN=C(N)N)C(N)=O [WWLWWLWWR]

MIC (Pseudomonas aeruginosa): 43.3 µM (≈ 60.4 µg/mL) | MIC [1]: 6 µM (≈ 8.37 µg/mL) | MIC (Staphylococcus aureus): 7.3 µM (≈ 10.2 µg/mL) | MIC (Bacillus subtilis 168): 2 µM (≈ 2.79 µg/mL) | MIC [2]: 2.7 µM (≈ 3.77 µg/mL) | MIC (Escherichia coli B): 4.3 µM (≈ 6 µg/mL)
Compound: CC[C@H](C)[C@H](NC(=O)[C@H](C)NC(=O)CNC(=O)[C@H](Cc1c[nH]c2ccccc12)NC(=O)[C@H](CC(N)=O)NC(=O)[C@@H](N)CC(C)C)C(=O)N[C@@H](CC(C)C)C(=O)N[C@@H](CCCCN)C(=O)N[C@@H](CCCCN)C(=O)N[C@H](C(=O)N[C@H](C(=O)N[C@@H](CCCCN)C(N)=O)[C@@H](C)CC)[C@@H](C)CC [LNWGAILKKIIK]

MIC [3]: 3.12 µM (≈ 4.06 µg/mL)
Compound: CC(C)C[C@H](NC(=O)[C@H](Cc1c[nH]c2ccccc12)NC(=O)[C@H](CCCN=C(N)N)NC(=O)[C@H](CC(C)C)NC(=O)[C@H](Cc1c[nH]c2ccccc12)NC(=O)[C@H](CC(C)C)NC(=O)[C@H](CC(C)C)NC(=O)[C@H](Cc1c[nH]c2ccccc12)NC(=O)[C@@H](N)CC(C)C)C(N)=O [LWLLWLRWL]

MIC [3]: 25 µM (≈ 37.1 µg/mL)
Compound: CC(=O)N[C@@H](Cc1c[nH]c2ccccc12)C(=O)N[C@@H](Cc1c[nH]c2ccccc12)C(=O)N[C@@H](CC(C)C)C(=O)N[C@@H](Cc1c[nH]c2ccccc12)C(=O)N[C@@H](Cc1c[nH]c2ccccc12)C(=O)N[C@@H](CC(C)C)C(=O)N[C@@H](CCCN=C(N)N)C(=O)N[C@@H](Cc1c[nH]c2ccccc12)C(=O)N[C@@H](CC(C)C)C(N)=O [WWLWWLRWL]

From DBAASP
